Peptide text beside a SMILES is read from it. * marks the point of attachment. Palmitoyl = CCCCCCCCCCCCCCCC(=O)*

Data set [1] deals with inducible nitric oxide synthase (iNOS). As to the kind of experiment: iNOS expression by flow cytometry. It is filed as cell-based, mouse. The conditions noted are these: vs. stimulated control. For orientation: In flow cytometry, cells or beads pass a laser one at a time.
Data set [2] can be described thus: Treatment study serum chemistry (toxicology analysis). The conditions noted are these: mouse, in vivo. Format: in vivo, mouse. As to the method:
(§1) Blood samples were collected at the end of the treatment study for toxicology analysis. Mice were euthanized three days after their 16th treatment.
(§2) Tissue processing and imaging: Mice were sacrificed and euthanized under inhaled isoflurane anesthesia by diaphragm disruption and exsanguination. Phlebotomy was performed through direct right ventricular cardiac puncture using a 1 mL syringe and 25 G needle. Perfusion was performed through left ventricular cardiac puncture with 10 mL PBS and 10 mL 10% sucrose solution. The lungs, liver, spleen, kidney, aortic root, aortic arch, and descending aorta were harvested and stored in 10% sucrose for 20 minutes. Organs and vessels were then flash-frozen in Optimal Cutting Temperature embedding medium 4583 (Tissue-Tek®) with liquid nitrogen. Frozen specimens were stored at −80° C. and cryosectioned at […]. Confocal microscopy was performed on a Nikon AIR microscope. Two sets of images were acquired with a 10× Plan Fluor NA 0.3 objective. PAs were identified through quantification of the Alexa Fluor® 546 conjugated dye with 561 nm excitation and a 600/50 nm emission filter.
(§3) Statistics: The effect of treatments and sex on atherosclerosis progression in mice was analyzed using one- or two-factor analysis of variance (ANOVA) followed by a post-hoc student's t-test. The toxicological effects of treatments were also analyzed using two-factor ANOVA and a post-hoc student's t-test. Toxicological effects of treatments on liver proteins AST, ALT, and ALP were further analyzed using ordinal logistic regression models of likelihood ratio tests, followed by a post-hoc Wald test

The nature of data set [3]: Off-target localization in internal organs, fluorescent pixel analysis. It is filed as in vivo, mouse. As to the method:
Dose and concentration study: To determine the optimum concentration for targeting efficacy and safety, LDLR KO mice fed the high fat diet for 14 weeks were injected with PA nanofiber at concentrations of 1 mg/mL, 2 mg/mL, and 4 mg/mL at 8 mg/kg in PBS. Similarly, to determine the optimum dose for targeting efficacy and safety, LDLR KO mice fed the high fat diet for 14 weeks were injected at PA nanofiber doses of 8 mg/kg, 6 mg/kg, 4 mg/kg, 3.3 mg/kg, and 1.7 mg/kg at 2 mg/mL in PBS. Safety, optimum dose, and concentration for targeting was assessed by survival of the animal and fluorescent pixel quantification in the aortic root, liver, lungs, kidneys, and spleen.
as §2
Images were acquired with spectral detection and spectrally unmixed to accurately separate green autofluorescence from the red Alexa Fluor® 546 signal. […] Slides were stained with Oil Red O to image and quantify atherosclerosis under brightfield microscopy. […] Fluorescent pixel quantification in the aortic root and within organs was performed with ImageJ software.

In another data set the test system is LDLR KO mice. As to the kind of experiment: Atherosclerosis treatment study. It is filed as in vivo, mouse. Particulars: both sexes, twice per week over eight weeks, percent of atherosclerosis in the aortic root. As to the method: Mouse model of atherosclerosis: To study atherosclerosis, the LDLR KO mouse was used. LDLR KO mice are fed a high fat “western” diet (Teklad TD.88137) starting at 4 weeks of age. This diet consists of 20% fat, 0.2% cholesterol, and 34% high sucrose. LDLR KO mice fed this diet typically develop severe hypercholesterolemia (>800 mg/dL) and hypertriglyceridemia (>300 mg/dL) after only 2 weeks. By 12 weeks on the high fat diet, atherosclerotic lesions are detected in the aortic root and aortic arch on cryosections stained with Oil Red O (Sigma). Atherosclerosis was quantified in the aortic root as a percentage of the aortic root by taking the atherosclerotic area divided by the total aortic root area. Measurements were made with ImageJ software. All protocols for the animal model and procedures in this manuscript were approved by Northwestern University's Institutional Animal Care and Use Committee.
as §1, §2
Images were acquired with spectral detection and spectrally unmixed to accurately separate green autofluorescence from the red Alexa Fluor® 546 signal. Brightfield and fluorescent microscopy were performed using a Zeiss Axio Imager.A2 microscope with AxioVision software (release 4.8.2, 06-2010). All confocal and fluorescent sections were mounted with ProGold Diamond mounting media (Sigma). Slides were stained with Oil Red O to image and quantify atherosclerosis under brightfield microscopy. The elastic laminae were identified using the green fluorescent protein (GFP) filter with an exposure time of 3500 ms under 5× magnification. Nanofibers were identified in the aortic root by presence of Alexa Fluor® 546 on the Cy3 filter under 5-10× magnification, and in the internal organs under 20× magnification. Fluorescent pixel quantification in the aortic root and within organs was performed with ImageJ software.
as §3

With “10% MMP-Ac2-26 PA: co-assembly of 10 mol % MMP-Ac2-26 PA, 50 mol % E2 filler PA, and 40% ApoA1 PA (VVAAEEGGGPQGIWGQGKAMVSEFLKQAWFIENEEQEYVQTVK)”, the “intracellular iNOS expression of stimulated macrophages” value in data set [1] is “no effect upon iNOS expression”.

For the molecule `CCCCCCCCCCCCCCCC(=O)N[C@H](C(=O)N[C@H](C(=O)N[C@@H](C)C(=O)N[C@@H](C)C(=O)N[C@@H](CCC(=O)O)C(=O)N[C@@H](CCC(=O)O)C(=O)NCC(=O)N[C@@H](CC(=O)O)C(=O)N[C@@H](Cc1c[nH]c2ccccc12)C(=O)N[C@@H](Cc1ccccc1)C(=O)N[C@@H](CCCCN)C(=O)N[C@@H](C)C(=O)N[C@@H](Cc1ccccc1)C(=O)N[C@@H](Cc1ccc(O)cc1)C(=O)N[C@@H](CC(=O)O)C(=O)N[C@@H](CCCCN)C(=O)N[C@H](C(=O)N[C@@H](C)C(=O)N[C@@H](CCC(=O)O)C(=O)N[C@@H](CCCCN)C(=O)N[C@@H](Cc1ccccc1)C(=O)N[C@@H](CCCCN)C(=O)N[C@@H](CCC(=O)O)C(=O)N[C@@H](C)C(=O)N[C@@H](Cc1ccccc1)C(N)=O)C(C)C)C(C)C)C(C)C` [ApoA1 PA] (Palmitoyl-VVAAEEGDWFKAFYDKVAEKFKEAF-NH2), in data set [2], the Creatine was 0 U/L and the “aspartate aminotransferase (AST) in the blood in comparison to PBS” value is on record as “Neither ApoA1-LXR PAs nor ApoA1 PAs increased AST levels”. Also, the “detection in the lung, liver, and kidney” value in data set [3] (1-14 days post injection) is recorded as “minimal detection”. Moreover, the “time when red fluorescent pixels returned to non-injected control levels” value in data set [3] (all internal organs, post injection) was in the range of 10 to 14 days. For the same molecule, the “time of detection in the spleen” value in data set [3] (post injection) lay within 1 to 10 days. In addition, the “atherosclerosis progression in comparison to the PBS control” value in the data set with LDLR KO mice is on record as “significantly decreased”.

Values taken from patent US12214076B2, “Drug delivery vehicles for atherosclerosis nanomedicine” (Northwestern University, priority 2019, dated 2025).
